Measurements published in patent publication US7947675B2, “Trifluoromethylbenzamide derivatives and therapeutic uses thereof” (Merck Patent GmbH, priority 2005, dated 2011).
pIC50: −log10 of the molar value.

Columns and labels:
[1] = molecular target: T1, CETP (cholesteryl ester transfer protein) (Homo sapiens, UniProt P11597); assay: In vitro screening test: inhibitory effect on the activity of CETP (3H-cholesterol ester transfer from HDL to biotinylated LDL, SPA); format: biochemical; details: incubation 24 hours at 37° C., relative to control (CETP+solvent)
T1 sequence (P11597 18-493): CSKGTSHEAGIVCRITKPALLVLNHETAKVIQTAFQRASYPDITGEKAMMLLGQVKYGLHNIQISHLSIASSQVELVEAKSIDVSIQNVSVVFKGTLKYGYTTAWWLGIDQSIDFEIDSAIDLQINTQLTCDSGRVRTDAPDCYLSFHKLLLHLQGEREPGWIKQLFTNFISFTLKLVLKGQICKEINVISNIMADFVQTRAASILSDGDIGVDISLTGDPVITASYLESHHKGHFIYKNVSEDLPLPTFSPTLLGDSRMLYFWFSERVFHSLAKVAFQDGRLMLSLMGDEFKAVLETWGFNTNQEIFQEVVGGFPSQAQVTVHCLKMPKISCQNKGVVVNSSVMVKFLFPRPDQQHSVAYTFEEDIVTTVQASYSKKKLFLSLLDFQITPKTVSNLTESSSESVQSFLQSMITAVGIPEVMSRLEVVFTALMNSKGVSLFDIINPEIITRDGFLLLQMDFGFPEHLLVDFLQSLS
Procedure: Measurement of an inhibitory effect on the activity of CETP (cholesteryl ester transfer protein)
The measurement of the CETP activity is performed by measuring the transfer of ^3H-cholesterol ester from the HDLs to the biotinylated LDLs.
The transfer is measured after incubation for 24 hours in the presence of donor (HDL), acceptor (LDL) and CETP, with or without inhibitor. The reaction is stopped and the transfer measured by addition of SPA streptavidin beads (Amersham).
The increase in scintillation is proportional to the transfer of ^3H-cholesterol ester via CETP to the LDLs.
To perform the test, 10 μl of ^3H-cholesterol ester HDL, 10 μl of biotinylated LDL and 10 μl of HEPES buffer (50 mM HEPES/[…]/0.1% BSA/0.05% NaN3, pH 7.4) are mixed with 10 μl of CETP (1 mg/ml) and the test product (1 μl of the stock solution at 10 mM in DMSO) or 1 μl of DMSO alone in a 96-well microplate (Costar).
Screening is performed at a final concentration of 10 μM per well in 0.1% of solvent.
The plates are then covered with a film, shaken and incubated under a humid atmosphere at 37° C. for 24 hours.
200 μl of SPA-streptavidin beads solution (Amersham, TRKQ 7005) are added and the radioactivity reading is taken 1 hour later on a scintillation counter (Top Count, Packard) with a reading time of 0.5 minute.
The inhibition results are expressed relative to the control test (CETP+solvent).
The IC 50 values are determined and expressed in μM.

Compound	melting point [°C]	pIC50 [1]
N#Cc1cc(C(F)(F)F)cc(C(=O)Nc2ccc(Cl)c(Cl)c2)c1N1CCCCC1 [Example 4, 3-Cyano-N-(3,4-dichlorophenyl)-2-piperid-1-yl-5-trifluoromethylbenzamide]	175	–
O=C(Nc1ccc(Cl)c(Cl)c1)c1cc(C(F)(F)F)cc(Br)c1N1CCCCC1 [Example 3, 3-Bromo-N-(3,4-dichlorophenyl)-2-piperid-1-yl-5-trifluoromethylbenzamide]	–	6.05
CC1CCN(c2c(Cl)cc(C(F)(F)F)cc2C(=O)Nc2ccc(Cl)c(Cl)c2)CC1 [Example 6, 3-Chloro-N-(3,4-dichlorophenyl)-2-(4-methylpiperid-1-yl)-5-trifluoromethylbenzamide]	–	6.12

Continued by rising pIC50 [1], values first:

melting point [°C]	pIC50 [1]	Compound
–	5.84	O=C(Nc1ccc(Cl)c(Cl)c1)c1cc(C(F)(F)F)cc([N+](=O)[O-])c1N1CCCCC1 [Example 1, N-(3,4-Dichlorophenyl)-3-nitro-2-piperid-1-yl-5-trifluoromethylbenzamide]
–	6.03	Nc1cc(C(F)(F)F)cc(C(=O)Nc2ccc(Cl)c(Cl)c2)c1N1CCCCC1 [Example 2, 3-Amino-N-(3,4-dichlorophenyl)-2-piperid-1-yl-5-trifluoromethylbenzamide]
